# Reference: patent publication US6737383B1, “Herbicidal oxadiazolidines” (priority 1999, dated 2004)
# What was measured:
# [1] = system: bedstraw; test: Test B pre/postemergence bedstraw; assay type: in vivo, Galium aparine; settings: Preemergence; for Bedstraw plant response rating: scale of 0 to 10 where 0 is no effect and 10 is complete control
# Method in brief: (§1)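 Test chemicals in a non-phytotoxic solvent mixture with surfactant were sprayed preemergence onto planted seeds and postemergence onto plants 2 to 18 cm tall (1- to 4-leaf stage). After twelve to sixteen days in a greenhouse, injury was visually rated against untreated controls from 0 (no effect) to 10 (complete control).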
# [2] = system: wild oat; test: Test B pre/postemergence wild oat; assay type: in vivo, Avena fatua; settings: for Wild oats plant response rating: scale of 0 to 10 where 0 is no effect and 10 is complete control
# Method in brief: as §1
# [3] = system: blackgrass; test: Test B pre/postemergence blackgrass; assay type: in vivo, Alopecurus myosuroides
# Method in brief: as §1
# [4] = system: velvetleaf; test: Test B pre/postemergence velvetleaf; assay type: in vivo, Abutilon theophrasti; settings: for Velvetleaf plant response rating: scale of 0 to 10 where 0 is no effect and 10 is complete control
# Method in brief: as §1
# [5] = system: pigweed; test: Test B pre/postemergence pigweed; assay type: in vivo, Amaranthus retroflexus; settings: for Redroot pigweed plant response rating: scale of 0 to 10 where 0 is no effect and 10 is complete control
# Method in brief: as §1
# [6] = system: duck salad; test: Test B flood test duck salad; assay type: in vivo, Heteranthera limosa
# Method in brief: (§2)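 Read-out is a visual response score from 0 (no effect) to 10 (complete control), assigned by comparison with untreated controls. Treatment was applied at the 2-leaf stage, and plants stayed in the greenhouse for twelve to sixteen days before scoring.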
# [7] = system: corn; test: Test B pre/postemergence corn; assay type: in vivo, Zea mays; settings: for Corn plant response rating: scale of 0 to 10 where 0 is no effect and 10 is complete control
# Method in brief: as §1
# [8] = system: morningglory; test: Test B pre/postemergence morningglory; assay type: in vivo, Ipomoea hederacea; settings: for Morningglory plant response rating: scale of 0 to 10 where 0 is no effect and 10 is complete control
# Method in brief: as §1
# [9] = system: crabgrass; test: Test B pre/postemergence crabgrass; assay type: in vivo, Digitaria sanguinalis; settings: for Crabgrass plant response rating: scale of 0 to 10 where 0 is no effect and 10 is complete control
# Method in brief: as §1
# [10] = system: surinam grass; test: Test B pre/postemergence surinam grass; assay type: in vivo, Brachiaria decumbens
# Method in brief: as §1
# [11] = system: giant foxtail; test: Test B pre/postemergence giant foxtail; assay type: in vivo, Setaria faberii; settings: for Giant foxtail plant response rating: scale of 0 to 10 where 0 is no effect and 10 is complete control
# Method in brief: as §1
# [12] = system: smallflower flatsedge; test: Test B flood test smallflower flatsedge; assay type: in vivo, Cyperus difformis
# Method in brief: as §2
# [13] = system: soybean; test: Test B pre/postemergence soybean; assay type: in vivo, Glycine max; settings: for Soybean plant response rating: scale of 0 to 10 where 0 is no effect and 10 is complete control
# Method in brief: as §1
# [14] = system: purple nutsedge; test: Test B pre/postemergence purple nutsedge; assay type: in vivo, Cyperus rotundus; settings: for Nutsedge plant response rating: scale of 0 to 10 where 0 is no effect and 10 is complete control
# Method in brief: as §1
# [15] = system: rice; test: Test B flood test rice; assay type: in vivo, Oryza sativa
# Method in brief: as §2
# [16] = system: wheat; test: Test B pre/postemergence wheat; assay type: in vivo, Triticum aestivum; settings: for Wheat plant response rating: scale of 0 to 10 where 0 is no effect and 10 is complete control
# Method in brief: as §1
# [17] = Postemergence, Rate 125 g/ha, scale 0 to 10, 0 is no effect, 10 is complete control
# [18] = Preemergence, Rate 62 g/ha, scale 0 to 10 (0 no effect, 10 complete control)
# [19] = Rate 500 g/ha, Postemergence, scale 0 to 10, 0 no effect, 10 complete control
# [20] = Preemergence, Rate 250 g/ha, scale of 0 to 10 where 0 is no effect and 10 is complete control
# [21] = Preemergence, Rate 500 g/ha, scale of 0 to 10 where 0 is no effect and 10 is complete control
# [22] = Rate 62 g/ha, Postemergence, scale of 0 to 10 where 0 is no effect and 10 is complete control
# [23] = Rate 250 g/ha, Postemergence, scale of 0 to 10 where 0 is no effect and 10 is complete control
# [24] = Postemergence (flood test), Rate 125 g/ha, scale 0 to 10, 0 is no effect, 10 is complete control
# [25] = Rate 62 g/ha, Postemergence (flood test species), scale of 0 to 10 where 0 is no effect and 10 is complete control
# [26] = Rate 62 g/ha, flood test species, Pre-emergence, visual evaluation after twelve to sixteen days
# [27] = Rate 125 g/ha, Pre-emergence, flood test species, scale 0 to 10 where 0 is no effect and 10 is complete control
# [28] = Rate 250 g/ha, Pre-emergence, flood-test species, scale 0 to 10, 0 is no effect, 10 is complete control
# [29] = Rate 500 g/ha, listed under Postemergence (flood test species), scale 0 to 10, 0 no effect, 10 complete control
# [30] = Rate 500 g/ha, Pre-emergence, flood test species, scale 0 to 10 (0 no effect, 10 complete control)
smiles,measurement,setting,value
CCC(CC)n1c(=O)on(C(=O)N(c2ccccc2)C(C)C)c1=O [Compound 354],"Plant response rating, Bedstraw","[1]; Rate 62 g/ha, scale 0 to 10 (0 no effect, 10 complete control)",0
same,Bedstraw plant response rating (0 to 10 scale),[1]; Rate 125 g/ha,0
same,Bedstraw plant response rating,[1]; Rate 250 g/ha,0
same,Bedstraw plant response rating,[1]; Rate 500 g/ha,0
same,"Plant response rating, Wild oats",[2]; [17],0
same,"Plant response rating, Wild oats",[2]; [18],0
same,Wild oats plant response rating (0 to 10 scale),"[2]; Preemergence, Rate 125 g/ha",4
same,Wild oats plant response rating,"[2]; Preemergence, Rate 250 g/ha",6
same,Wild oats plant response rating,"[2]; Preemergence, Rate 500 g/ha",8
same,Wild oats plant response rating,"[2]; Rate 62 g/ha, Postemergence",0
same,"Plant response rating, Wild oats",[2]; [19],3
same,"Plant response rating, Blackgrass",[3]; [17],5
same,"Plant response rating, Blackgrass",[3]; [18],3
same,Blackgrass plant response rating (0 to 10 scale),"[3]; Preemergence, Rate 125 g/ha",4
same,Blackgrass plant response rating,[3]; [20],8
same,Blackgrass plant response rating,[3]; [21],9
same,Blackgrass plant response rating,[3]; [22],3
same,"Plant response rating, Blackgrass",[3]; [23],7
same,"Plant response rating, Blackgrass",[3]; [19],9
same,"Plant response rating, Velvetleaf",[4]; [17],0
same,"Plant response rating, Velvetleaf",[4]; [18],1
same,Velvetleaf plant response rating (0 to 10 scale),"[4]; Preemergence, Rate 125 g/ha",5
same,Velvetleaf plant response rating,"[4]; Preemergence, Rate 250 g/ha",6
same,Velvetleaf plant response rating,"[4]; Preemergence, Rate 500 g/ha",7
same,Velvetleaf plant response rating,"[4]; Rate 62 g/ha, Postemergence",0
same,"Plant response rating, Velvetleaf",[4]; [19],2
same,"Plant response rating, Redroot pigweed",[5]; [17],3
same,"Plant response rating, Redroot pigweed",[5]; [18],5
same,Redroot pigweed plant response rating (0 to 10 scale),"[5]; Preemergence, Rate 125 g/ha",7
same,Redroot pigweed plant response rating,"[5]; Preemergence, Rate 250 g/ha",10
same,Redroot pigweed plant response rating,"[5]; Preemergence, Rate 500 g/ha",10
same,Redroot pigweed plant response rating,"[5]; Rate 62 g/ha, Postemergence",2
same,"Plant response rating, Redroot pigweed",[5]; [19],7
same,"Plant response rating, Ducksalad",[6]; [24],3
same,Ducksalad plant response rating,[6]; [25],0
same,"Plant response rating, Ducksalad (0 to 10 scale, 0 is no effect, 10 is complete control)",[6]; [26],0
same,Ducksalad plant response rating,[6]; [27],0
same,Ducksalad plant response rating,[6]; [28],0
same,"Plant response rating, Ducksalad",[6]; [29],5
same,Ducksalad plant response rating,[6]; [30],0
same,"Plant response rating, Corn",[7]; [17],0
same,"Plant response rating, Corn",[7]; [18],0
same,Corn plant response rating (0 to 10 scale),"[7]; Preemergence, Rate 125 g/ha",0
same,Corn plant response rating,"[7]; Preemergence, Rate 250 g/ha",3
same,Corn plant response rating,"[7]; Preemergence, Rate 500 g/ha",6
same,Corn plant response rating,"[7]; Rate 62 g/ha, Postemergence",0
same,"Plant response rating, Corn",[7]; [19],0
same,"Plant response rating, Morningglory",[8]; [17],5
same,"Plant response rating, Morningglory",[8]; [18],0
same,Morningglory plant response rating (0 to 10 scale),"[8]; Preemergence, Rate 125 g/ha",0
same,Morningglory plant response rating,"[8]; Preemergence, Rate 250 g/ha",0
same,Morningglory plant response rating,"[8]; Preemergence, Rate 500 g/ha",0
same,Morningglory plant response rating,"[8]; Rate 62 g/ha, Postemergence",0
same,"Plant response rating, Morningglory",[8]; [19],8
same,"Plant response rating, Crabgrass",[9]; [17],2
same,"Plant response rating, Crabgrass",[9]; [18],9
same,Crabgrass plant response rating (0 to 10 scale),"[9]; Preemergence, Rate 125 g/ha",9
same,Crabgrass plant response rating,"[9]; Preemergence, Rate 250 g/ha",9
same,Crabgrass plant response rating,"[9]; Preemergence, Rate 500 g/ha",10
same,Crabgrass plant response rating,"[9]; Rate 62 g/ha, Postemergence",0
same,"Plant response rating, Crabgrass",[9]; [19],3
same,"Plant response rating, B. signalgrass",[10]; [17],0
same,"Plant response rating, B. signalgrass",[10]; [18],1
same,"B. signalgrass plant response rating (0 to 10 scale, 0 is no effect, 10 is complete control)","[10]; Preemergence, Rate 125 g/ha",5
same,B. signalgrass plant response rating,[10]; [20],5
same,B. signalgrass plant response rating,[10]; [21],5
same,B. signalgrass plant response rating,[10]; [22],0
same,"Plant response rating, B. signalgrass",[10]; [23],0
same,"Plant response rating, B. signalgrass",[10]; [19],2
same,"Plant response rating, Giant foxtail",[11]; [17],4
same,"Plant response rating, Giant foxtail",[11]; [18],10
same,Giant foxtail plant response rating (0 to 10 scale),"[11]; Preemergence, Rate 125 g/ha",10
same,Giant foxtail plant response rating,"[11]; Preemergence, Rate 250 g/ha",10
same,Giant foxtail plant response rating,"[11]; Preemergence, Rate 500 g/ha",10
same,Giant foxtail plant response rating,"[11]; Rate 62 g/ha, Postemergence",0
same,"Plant response rating, Giant foxtail",[11]; [19],9
same,"Plant response rating, S. Flatsedge",[12]; [24],8
same,S. Flatsedge plant response rating,[12]; [25],5
same,"Plant response rating, S. Flatsedge (0 to 10 scale, 0 is no effect, 10 is complete control)",[12]; [26],0
same,S. Flatsedge plant response rating,[12]; [27],0
same,S. Flatsedge plant response rating,[12]; [28],0
same,"Plant response rating, S. Flatsedge",[12]; [29],9
same,S. Flatsedge plant response rating,[12]; [30],0
same,"Plant response rating, Soybean",[13]; [17],5
same,"Plant response rating, Soybean",[13]; [18],0
same,Soybean plant response rating (0 to 10 scale),"[13]; Preemergence, Rate 125 g/ha",0
same,Soybean plant response rating,"[13]; Preemergence, Rate 250 g/ha",0
same,Soybean plant response rating,"[13]; Preemergence, Rate 500 g/ha",1
same,Soybean plant response rating,"[13]; Rate 62 g/ha, Postemergence",3
same,"Plant response rating, Soybean",[13]; [19],7
same,"Plant response rating, Nutsedge",[14]; [17],0
same,"Plant response rating, Nutsedge",[14]; [18],0
same,Nutsedge plant response rating (0 to 10 scale),"[14]; Preemergence, Rate 125 g/ha",0
same,Nutsedge plant response rating,"[14]; Preemergence, Rate 250 g/ha",0
same,Nutsedge plant response rating,"[14]; Preemergence, Rate 500 g/ha",0
same,Nutsedge plant response rating,"[14]; Rate 62 g/ha, Postemergence",0
same,"Plant response rating, Nutsedge",[14]; [19],0
same,"Plant response rating, Rice",[15]; [24],0
same,Rice plant response rating,[15]; [25],0
same,"Plant response rating, Rice (0 to 10 scale, 0 is no effect, 10 is complete control)",[15]; [26],0
same,Rice plant response rating,[15]; [27],0
same,Rice plant response rating,[15]; [28],0
same,"Plant response rating, Rice",[15]; [29],2
same,Rice plant response rating,[15]; [30],0
same,"Plant response rating, Wheat",[16]; [17],0
same,"Plant response rating, Wheat",[16]; [18],0
same,Wheat plant response rating (0 to 10 scale),"[16]; Preemergence, Rate 125 g/ha",0
same,Wheat plant response rating,"[16]; Preemergence, Rate 250 g/ha",0
same,Wheat plant response rating,"[16]; Preemergence, Rate 500 g/ha",2
same,Wheat plant response rating,"[16]; Rate 62 g/ha, Postemergence",0
same,"Plant response rating, Wheat",[16]; [19],0
